Assay results published in patent publication US12187726B1, “Imidazo[1,5-a]pyrido[4,3-e]pyrazines as CK2 inhibitors” (KING FAISAL UNIVERSITY, priority 2024, dated 2025).

Assays:
[1] = system: A375 (melanoma) cancer cells; assay: MTT in vitro cytotoxic activity assay, A375; format: cell-based; conditions: Homo sapiens, A-375; cells exposed for 96 hours; 50% inhibition of cell proliferation; read-out: Cytotoxicity activity IC50, A375 (melanoma)
Procedure: (§1) Compounds 1-16 were screened for their in vitro cytotoxic activity utilizing a 3-(4,5-dimethyl-thiazol-2-yl)-2,5-diphenyltetrazolium bromide (MTT) assay against selected cancer human cell lines consisting of PC3 (prostate), HCT116 (colon), A375 (melanoma), H1299 (lung), MIAPaCa-2 (pancreas), HL60 (leukemia), MCF7 (breast), MDA-MB-231 (breast) (T. Mosmann, J. Immunol. Meth., 1983, 65, 55-63). The cells were cultured at 37° C. in RMPI1640 medium supplemented with 10% fetal bovine serum, 50 IU/mL penicillin, and 50 μg/mL streptomycin in a 5% CO2 incubator. All cells were sub-cultured 3 times/week by trypsinisation. Viable cells were seeded and allowed to adhere for 12 hours before a test drug was added in 96-well plates at an initial density of 1.0×10^5 cells/mL. Tumor cell lines were separately exposed to various concentrations of the tested compounds followed by incubation at a temperature of 37° C. during 96 hours inside a medium of fresh RMPI 1640. Cells were subsequently incubated at 37° C. using MTT at 0.5 mg/mL during 4 hours. After removal of supernatant, formazan crystals were dissolved in isopropanol and the optical density was measured at 570 nm. CX-4945 was used as a positive control.

[2] = system: H1299 (lung) cancer cells; assay: MTT in vitro cytotoxic activity assay, H1299; format: cell-based; conditions: Homo sapiens, NCI-H1299; cells exposed for 96 hours; 50% inhibition of cell proliferation; read-out: Cytotoxicity activity IC50, H1299 (lung)
Procedure: as §1

[3] = system: MIAPaCa-2 (pancreas) cancer cells; assay: MTT in vitro cytotoxic activity assay, MIAPaCa-2; format: cell-based; conditions: Homo sapiens, MIA PaCa-2; cells exposed for 96 hours; 50% inhibition of cell proliferation; read-out: Cytotoxicity activity IC50, MIAPaCa-2 (pancreas)
Procedure: as §1

[4] = system: PC3 (prostate) cancer cells; assay: MTT in vitro cytotoxic activity assay, PC3; format: cell-based; conditions: Homo sapiens; cells exposed for 96 hours; 50% inhibition of cell proliferation; read-out: Cytotoxicity activity IC50, PC3 (prostate)
Procedure: as §1

[5] = molecular target: T1, recombinant human CK2 (RRββ-holoenzyme) (Homo sapiens, UniProt P68400); assay: CK2 Kinase Assay (33P-ATP, filter plate); format: biochemical; conditions: final ATP concentration 15 μM; 10 min at 30° C.; read-out: protein kinase CK2 IC50
T1 construct: purchased Millipore
Procedure: CK2 Kinase Assay was conducted using the protocol as described in Pierre F. et al; J. Med. Chem. 2011, 54, 635-654. The tested compounds in aqueous solution were added at a volume of 10 μL to a reaction mixture comprising 10 μL of assay dilution buffer (ADB; 20 mM MOPS, pH 7.2, 25 mM β-glycerol phosphate, 5 mM EGTA, 1 mM sodium orthovanadate, and 1 mM dithiothreitol), 10 μL of substrate peptide (RRRDDDSDDD, dissolved in ADB at a concentration of 1 mM), 10 μL of recombinant human CK2 (RRββ-holoenzyme, 25 ng dissolved in ADB; Millipore). Reactions were initiated by the addition of 10 μL of ATP solution (90% 75 mMMgCl2, 75 μM ATP (final ATP concentration: 15 μM) dissolved in ADB; 10% [γ-33P] ATP (stock 1mCi/100 μL; 3000 Ci/mmol (Perkin-Elmer) and maintained for 10 min at 30° C. The reactions were quenched with 100 μL of 0.75% phosphoric acid and then transferred to and filtered through a phosphor cellulose filter plate (Millipore). After washing each well five times with 0.75% phosphoric acid, the plate was dried under vacuum for 5 min and, following the addition of 15 μL of scintillation fluid to each well, the residual radioactivity was measured using a Wallac luminescence counter. The IC50 values were derived from eight concentrations of test inhibitors.

[6] = system: MCF7 (breast) cancer cells; assay: MTT in vitro cytotoxic activity assay, MCF7; format: cell-based; conditions: Homo sapiens, cells exposed for 96 hours, 50% inhibition of cell proliferation, read-out: Cytotoxicity activity IC50, MCF7 (breast)
Procedure: as §1

[7] = system: HL60 (leukemia) cancer cells; assay: MTT in vitro cytotoxic activity assay, HL60; format: cell-based; conditions: Homo sapiens, HL-60; cells exposed for 96 hours; 50% inhibition of cell proliferation; read-out: Cytotoxicity activity IC50, HL60 (leukemia)
Procedure: as §1

[8] = system: MDA-MB-231 (breast) cancer cells; assay: MTT in vitro cytotoxic activity assay, MDA-MB-231; format: cell-based; conditions: Homo sapiens, cells exposed for 96 hours, 50% inhibition of cell proliferation, read-out: Cytotoxicity activity IC50, MDA-MB-231 (breast)
Procedure: as §1

[9] = system: HCT116 (colon) cancer cells; assay: MTT in vitro cytotoxic activity assay, HCT116; format: cell-based; conditions: Homo sapiens, HCT-116; cells exposed for 96 hours; 50% inhibition of cell proliferation; read-out: Cytotoxicity activity IC50, HCT116 (colon)
Procedure: as §1

T1 sequence (P68400 whole entry): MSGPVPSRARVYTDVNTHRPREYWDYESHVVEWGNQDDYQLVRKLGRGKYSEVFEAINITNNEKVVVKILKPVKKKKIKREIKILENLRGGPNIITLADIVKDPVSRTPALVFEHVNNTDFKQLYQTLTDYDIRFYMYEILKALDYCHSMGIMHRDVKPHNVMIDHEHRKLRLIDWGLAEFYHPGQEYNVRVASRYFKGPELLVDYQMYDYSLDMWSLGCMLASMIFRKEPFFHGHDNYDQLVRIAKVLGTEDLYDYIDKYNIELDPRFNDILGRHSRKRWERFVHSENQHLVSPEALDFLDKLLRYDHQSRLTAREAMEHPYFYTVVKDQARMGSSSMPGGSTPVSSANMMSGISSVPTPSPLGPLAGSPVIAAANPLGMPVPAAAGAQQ
T1 sequence (P67870 whole entry partner): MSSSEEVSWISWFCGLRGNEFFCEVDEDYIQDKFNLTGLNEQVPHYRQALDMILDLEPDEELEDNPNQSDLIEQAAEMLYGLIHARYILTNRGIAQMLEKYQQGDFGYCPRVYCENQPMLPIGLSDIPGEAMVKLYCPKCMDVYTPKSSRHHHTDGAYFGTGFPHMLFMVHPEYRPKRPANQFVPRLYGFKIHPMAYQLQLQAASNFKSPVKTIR

O=C(O)c1ncn2c1c(Nc1cccc(Cl)c1)nc1ccncc12 [Compound 1, 4-((3-chlorophenyl)amino) imidazo[1,5-a]pyrido[4,3-e]pyrazine-3-carboxylic acid]
IC50 [1]: 3300 nM | IC50 [2]: 2500 nM | IC50 [3]: 1100 nM | IC50 [4]: 2100 nM | IC50 [5]: 36 nM | IC50 [6]: 5900 nM | IC50 [7]: 2600 nM | IC50 [8]: 5200 nM | IC50 [9]: 1800 nM
